Laboratory results taken from ChEMBL document CHEMBL1157531, “Sinulaflexiolides A-K, cembrane-type diterpenoids from the chinese soft coral Sinularia flexibilis” (J Nat Prod, 2008).

Assay: Cytotoxicity against human […] cells
Assay type: functional, cell-based
For `C=C(C(=O)OCC)[C@@H]1CC[C@@](C)(O)[C@@H]2CC[C@@](C)(O2)[C@@H](OC(C)=O)CC[C@]2(C)O[C@@H]2C1` [SINULAFLEXIOLIDE F], the IC50 was 0.12 µM. With `C=C1C(=O)O[C@]2(C)CC[C@@H]1C[C@H]1O[C@@]1(C)CC[C@H](OC(C)=O)[C@@]1(C)CC[C@@H]2O1` the IC50 was > 10 µg/mL. For `C=C1C(=O)O[C@@H]2C[C@H]1CC/C(C)=C/CC/C(C)=C/CC[C@]2(C)O`, the IC50 was > 10 µg/mL. With `C=C1C(=O)O[C@]2(C)CC[C@@H]1C[C@H](O)/C(C)=C/C/C=C(\C)CC[C@@H]2OC(C)=O` [DENDRONPHOLIDE A] the IC50 was > 10 µg/mL. With `C=C1C(=O)O[C@]2(C)CC[C@@H]1C[C@@H](O)[C@@](C)(O)CC/C=C(\C)CC[C@@H]2O` [CAPILLOLIDE] the IC50 was > 10 µg/mL. With `C=C(C(=O)OC)[C@@H]1CC[C@@](C)(O)[C@@H]2CC[C@@](C)(O2)[C@@H](OC(C)=O)CC[C@]2(C)O[C@@H]2C1` [SINULAFLEXIOLIDE E] the IC50 was 8.5 µM.
